Where “and” joins values, the source holds several entries; their conditions need not be identical. Equal entries are not always repeated. One block for each molecule: values may come before it. Starred links: 1 amine or outer side, 2 acyl side, 3 side chain; linkers in the order of their positions; H or OH if unused. Positions of bridges follow the written chain, without caps; N, C: chain ends. Non-standard residues stand in square brackets, D forms with d. Residues, ends and D or L forms follow the SMILES beside them. Chains are numbered I, II in the order given. X1 = NC(=O)[C@H](CCCCNC(=O)COCCOCCN[*:1])N[*:2]; 2Nal = N[C@@H](Cc1ccc2ccccc2c1)C(=O)O; CH2CH2 = C(C[*:2])[*:1]
Assays:
[1] = target: T1, Kelch-like ECH-associated protein 1 (Homo sapiens, UniProt Q14145); assay: Binding affinity to human KEAP1 incubated for 1 hr by absorbance based analysis
[2] = target: T1, Kelch-like ECH-associated protein 1; assay: Binding affinity to human KEAP1 by fluorescence polarization assay
[3] = target: T1, Kelch-like ECH-associated protein 1; assay: Binding affinity to human KEAP1 Kelch domain (residues Ala321-Thr609) expressed in Escherichia coli BL21(DE3) cells assessed as dissociation constant by SPR direct binding assay
[4] = target: T1, Kelch-like ECH-associated protein 1; assay: Binding affinity to human KEAP1 Kelch domain (residues Ala321-Thr609) expressed in Escherichia coli BL21(DE3) cells assessed as dissociation constant by isothermal titration calorimetric analysis
Keap1/Nrf2 [5] = target: T2, Keap1/Nrf2 (Homo sapiens, UniProt Q14145)
Keap1/Nrf2 [6] = target: T2, Keap1/Nrf2; assay: Inhibition of human Keap1-Nrf2 protein-protein interaction expressed in U2OS cells incubated for 6 hrs by cellular Keap1-Nrf2 functional assay; type: cell-based
[7] = target: T1, Kelch-like ECH-associated protein 1
[8] = target: T1, Kelch-like ECH-associated protein 1; assay: Binding affinity to human KEAP1 by fluorescence anisotropy assay
Keap1/Nrf2 [9] = target: T2, Keap1/Nrf2; remark: listed apart in the source
[10] = target: T1, Kelch-like ECH-associated protein 1; remark: listed apart in the source
Keap1/Nrf2 [11] = target: T2, Keap1/Nrf2; assay: Inhibition of human Keap1-Nrf2 protein-protein interaction by ELISA method; type: protein assay
[12] = target: T1, Kelch-like ECH-associated protein 1; assay: Binding affinity to human KEAP1 Kelch domain by SPR direct binding assay

T1 sequence (Q14145 whole entry): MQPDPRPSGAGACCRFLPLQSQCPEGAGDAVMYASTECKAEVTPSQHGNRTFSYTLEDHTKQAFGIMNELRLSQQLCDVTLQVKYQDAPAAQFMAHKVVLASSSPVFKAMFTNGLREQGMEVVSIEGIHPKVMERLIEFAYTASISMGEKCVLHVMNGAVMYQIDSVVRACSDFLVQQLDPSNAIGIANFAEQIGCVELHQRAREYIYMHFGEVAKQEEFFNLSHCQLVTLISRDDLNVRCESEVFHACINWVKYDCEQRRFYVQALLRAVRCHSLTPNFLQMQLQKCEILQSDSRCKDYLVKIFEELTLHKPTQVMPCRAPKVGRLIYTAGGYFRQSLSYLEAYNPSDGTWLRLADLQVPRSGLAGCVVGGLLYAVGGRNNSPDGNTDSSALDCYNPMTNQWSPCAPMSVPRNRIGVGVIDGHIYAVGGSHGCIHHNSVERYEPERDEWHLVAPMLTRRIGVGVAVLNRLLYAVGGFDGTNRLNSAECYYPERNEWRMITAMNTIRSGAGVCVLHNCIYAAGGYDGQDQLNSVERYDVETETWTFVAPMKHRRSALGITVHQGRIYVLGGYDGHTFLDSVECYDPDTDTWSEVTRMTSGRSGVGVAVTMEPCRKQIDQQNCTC
T2 sequence (Q16236 whole entry): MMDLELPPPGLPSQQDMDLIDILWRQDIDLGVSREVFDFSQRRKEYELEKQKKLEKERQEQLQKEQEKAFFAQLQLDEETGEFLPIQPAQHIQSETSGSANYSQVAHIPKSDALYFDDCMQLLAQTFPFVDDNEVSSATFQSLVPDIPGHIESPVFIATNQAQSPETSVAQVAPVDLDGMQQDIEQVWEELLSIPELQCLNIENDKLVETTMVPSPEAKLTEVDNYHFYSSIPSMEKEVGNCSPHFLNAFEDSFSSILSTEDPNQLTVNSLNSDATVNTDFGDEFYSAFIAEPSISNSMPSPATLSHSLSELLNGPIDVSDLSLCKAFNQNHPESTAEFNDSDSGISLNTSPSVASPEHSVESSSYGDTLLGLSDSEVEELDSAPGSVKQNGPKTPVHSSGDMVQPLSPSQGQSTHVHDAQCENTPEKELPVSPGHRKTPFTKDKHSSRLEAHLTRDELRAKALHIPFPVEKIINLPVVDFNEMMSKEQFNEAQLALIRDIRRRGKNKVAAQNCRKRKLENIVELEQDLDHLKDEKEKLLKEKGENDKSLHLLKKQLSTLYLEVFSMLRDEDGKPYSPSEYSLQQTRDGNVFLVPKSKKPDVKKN
T2 sequence (Q14145 whole entry): as the sequence (Q14145 whole entry) above

SMILES: C[C@@H]1NC(=O)[C@H](CC(=O)O)NC(=O)[C@@H](N)Cc2ccc(cc2)OCCSC[C@@H](C(=O)O)NC(=O)[C@H](CCC(=O)O)NC(=O)CNC(=O)[C@H]([C@@H](C)O)NC(=O)[C@H](CCC(=O)O)NC1=O (H-YDAETGEC-OH; linker 1-8 via CH2CH2)
Kd [1]: 40 nM

SMILES: CC[C@H](C)[C@@H]1NC(=O)[C@H](CC(=O)O)NC(=O)[C@H](CCC(N)=O)NC(=O)[C@H](CCCNC(=N)N)NC(=O)[C@H](Cc2c[nH]c3ccccc23)NC(=O)[C@H](CC(C)C)NC(=O)[C@H]([C@@H](C)CC)NC(=O)[C@H](CC(=O)O)NC(=O)[C@@H](NC(=O)[C@H](CC(C)C)NC(=O)[C@H](CC(=O)O)NC(=O)[C@@H](N)CCSC)CSSC[C@@H](C(=O)N[C@@H](Cc2ccccc2)C(=O)N[C@@H](CO)C(=O)O)NC(=O)[C@H](Cc2ccccc2)NC(=O)[C@H](C(C)C)NC(=O)[C@H](CCC(=O)O)NC(=O)[C@H](CCCNC(=N)N)NC(=O)[C@H](CO)NC(=O)[C@H](C(C)C)NC(=O)CNC(=O)[C@H](CC(C)C)NC(=O)[C@H](CC(=O)O)NC1=O (H-MDLCDILWRQDIDLGVSREVFCFS-OH; disulfide 4-22)
Kd [2]: 51 nM

SMILES: COC1=C(NCC(=O)O)CC(O)(CO)C/C1=N\C(CO)C(=O)O (stereo not drawn)
IC50 (Keap1/Nrf2 [5]): 100000 nM and 185000 nM

SMILES: O=C(O)c1ccc(NC2=C/C(=N/S(=O)(=O)c3ccc4ccccc4c3)c3ccccc3C2=O)cc1
IC50 (Keap1/Nrf2 [5]): 2700 nM
Kd [7]: 158 nM

SMILES: NCCCC[C@H](NC(=O)[C@H](CCCCN)NC(=O)[C@@H](N)CC(=O)O)C(=O)O (H-Asp-Lys-Lys-OH)
Kd [2]: 120 nM

SMILES: CC[C@H](C)[C@@H]1NC(=O)[C@H](CC(=O)O)NC(=O)[C@@H](N)Cc2ccc(cc2)OCCSC[C@@H](C(=O)O)NC(=O)[C@H](CCC(=O)O)NC(=O)CNC(=O)[C@H]([C@@H](C)O)NC(=O)[C@H](CCC(=O)O)NC1=O (H-YDIETGEC-OH; linker 1-8 via CH2CH2)
Kd [1]: 43 nM

SMILES: N[C@@H](CC(=O)O)C(=O)N[C@@H](CC(=O)O)C(=O)N[C@@H](Cc1c[nH]c2ccccc12)C(=O)O (H-Asp-Asp-Trp-OH)
Kd [2]: 100 nM

SMILES: CC(C)C[C@@H]1NC(=O)[C@H](Cc2ccccc2)NC(=O)[C@H](CCC(=O)O)NC(=O)CNC(=O)[C@H]([C@@H](C)O)NC(=O)[C@H](CCC(=O)O)NC(=O)[C@@H]2CCCN2C(=O)[C@H](CC(=O)O)NC(=O)[C@H](CC(C)C)NC(=O)[C@H](CCC(=O)NCCOCCOCC(=O)NCCCC[C@H](NC(=O)CC[C@@H]2NC(=O)[C@H](CCCNC(=N)N)NC(=O)[C@H](CCCNC(=N)N)NC(=O)[C@H](CCCNC(=N)N)NC(=O)[C@H](CCCNC(=N)N)NC(=O)[C@H](Cc3ccc4ccccc4c3)NC(=O)[C@H](Cc3ccccc3)NC2=O)C(N)=O)NC(=O)CNC1=O (I: cyclo(DPETGEFLGEL) / II: cyclo([2Nal]RRRREF); linker I:10-II:6 via X1)
IC50 (Keap1/Nrf2 [5]): 153 nM
Kd [2]: 48 nM

SMILES: CC(=O)N1CCN(c2ccc(OCC3COC(Cn4ccnc4)(c4ccc(Cl)cc4Cl)O3)cc2)CC1 (stereo not drawn) [KETOCONAZOLE]
IC50 (Keap1/Nrf2 [11]): 1670 nM

SMILES: COC1=C(NCC(=O)O)CC(O)(CO)C/C1=N\C(C(=O)O)C(C)O (stereo not drawn)
IC50 (Keap1/Nrf2 [5]): 100000 nM and 185000 nM

Other lines, results leading:

Kd [3]: 77000 nM
Kd [4]: 10000 nM
SMILES: N[C@@H](CCC(=O)O)C(=O)N[C@@H](Cc1c[nH]c2ccccc12)C(=O)N[C@@H](Cc1c[nH]c2ccccc12)C(=O)N[C@@H](Cc1c[nH]c2ccccc12)C(=O)O (H-EWWW-OH)

EC50 (Keap1/Nrf2 [6]): 1460 nM
SMILES: CC1=NN(c2ccccc2)C(=O)/C1=C/c1ccc(OS(=O)(=O)c2ccccc2[N+](=O)[O-])cc1

Kd [8]: 1140 nM
Kd [7]: 453 nM
SMILES: CCc1ccc(S(=O)(=O)N(CC(=O)O)c2cc(Sc3nc[nH]n3)c(O)c3ccccc23)cc1

IC50 (Keap1/Nrf2 [5]): 14.4 nM
IC50 (Keap1/Nrf2 [9]): 15.8 nM
Kd [10]: 39.8 nM
SMILES: COc1ccc(S(=O)(=O)N(Cc2nnn[nH]2)c2ccc(N(Cc3nnn[nH]3)S(=O)(=O)c3ccc(OC)cc3)c3ccccc23)cc1

IC50 (Keap1/Nrf2 [5]): 10 nM
SMILES: C[C@H](Oc1cccc(-c2cccc(-n3ncc(C(=O)O)c3[C@@H]3C[C@H]3c3cn(C)nn3)c2)c1)C1CCCCC1

IC50 (Keap1/Nrf2 [5]): 63 nM
SMILES: CCCCC1CCCN1C(=O)c1cccc(-c2cccc(-n3ncc(C(=O)O)c3C3CC3)c2)c1 (stereo not drawn)

Kd [12]: 19600 nM
SMILES: O=c1c2ccccc2nc2c3[nH]c4ccccc4c3ccn12

— ChEMBL document CHEMBL5230090, “Recent progress in Keap1-Nrf2 protein-protein interaction inhibitors” (Eur J Med Chem, 2020)
